What was measured:
Format in all cases: in vivo
[1] = test system: barnyardgrass (Echinochloa crus-galli L.): ECHCG; assay: Test Example 1 pre-emergence herbicidal activity, ECHCG; conditions: Rate 63 g a.i./ha, visually observed 20th to 23rd day after application
Outline: (§1)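 Plants were sown in pots of upland field soil and treated the following day, before emergence, with the formulated compound sprayed in 500 L/ha water. Herbicidal effect was judged by eye 20–23 days later on a 0–100% scale.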

[2] = test system: crabgrass (Digitaria sanguinalis L.): DIGSA; assay: Test Example 1 pre-emergence herbicidal activity, DIGSA; conditions: Rate 63 g a.i./ha, visually observed 20th to 23rd day after application
Outline: as §1

[3] = test system: green foxtail (Setaria viridis L.): SETVI; assay: Test Example 1 pre-emergence herbicidal activity, SETVI; conditions: Rate 63 g a.i./ha, visually observed 20th to 23rd day after application
Outline: as §1

[4] = test system: redroot pigweed (Amaranthus retroflexus L.): AMARE; assay: Test Example 1 pre-emergence herbicidal activity, AMARE; conditions: Rate 63 g a.i./ha, visually observed 20th to 23rd day after application
Outline: as §1

[5] = test system: prickly sida (Sida spinosa L.): SEDSP; assay: Test Example 1 pre-emergence herbicidal activity, SIDSP; conditions: Rate 63 g a.i./ha, visually observed 20th to 23rd day after application
Outline: as §1

[6] = test system: velvetleaf (Abutilon theophrasti): ABUTH; assay: Test Example 1 pre-emergence herbicidal activity, ABUTH; conditions: Rate 63 g a.i./ha, visually observed 20th to 23rd day after application
Outline: as §1

[7] = test system: rice (Oryza sativa L.): ORYSA; assay: Test Example 1 pre-emergence herbicidal activity, ORYSA; conditions: Rate 63 g a.i./ha, visually observed 20th to 23rd day after application
Outline: as §1

[8] = test system: wheat (Triticum aestivum L.): TRZAX; assay: Test Example 1 pre-emergence herbicidal activity, TRZAX; conditions: Rate 63 g a.i./ha, visually observed 20th to 23rd day after application
Outline: as §1

[9] = test system: corn (Zea mays L.): ZEAMX; assay: Test Example 1 pre-emergence herbicidal activity, ZEAMX; conditions: Rate 63 g a.i./ha, visually observed 20th to 23rd day after application
Outline: as §1

[10] = test system: soybean (Glycine max Merr.): GLXMA; assay: Test Example 1 pre-emergence herbicidal activity, GLXMA; conditions: Rate 63 g a.i./ha, visually observed 20th to 23rd day after application
Outline: as §1

[11] = test system: barnyardgrass (Echinochloa crus-galli L.), ECHCG; assay: Test Example 2 post-emergence (foliage treatment) herbicidal activity, ECHCG; conditions: 63 g a.i./ha
Outline: (§2)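 Seeds are sown in upland soil in pots, and seedlings are sprayed once they reach set leaf stages (pigweed 0.1-1.5, barnyardgrass 1.1-2.1, crabgrass 1.0-2.0, rice 1.0-2). The formulated compound goes on in 500 L/ha water containing 0.1% (v/v) spreader. Effect is judged by eye 20-23 days on, as percent control.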

[12] = test system: crabgrass (Digitaria sanguinalis L.), DIGSA; assay: Test Example 2 post-emergence (foliage treatment) herbicidal activity, DIGSA; conditions: 63 g a.i./ha
Outline: as §2

[13] = test system: green foxtail (Setaria viridis L.), SETVI; assay: Test Example 2 post-emergence (foliage treatment) herbicidal activity, SETVI; conditions: 63 g a.i./ha
Outline: (§3)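 Each species was evaluated for growth suppression by eye, 0% matching untreated and 100% meaning death, some 20 to 23 days after a single post-emergence foliar treatment applied in 500 L/ha of water carrying 0.1% (v/v) agricultural spreader.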

[14] = test system: redroot pigweed (Amaranthus retroflexus L.), AMARE; assay: Test Example 2 post-emergence (foliage treatment) herbicidal activity, AMARE; conditions: 63 g a.i./ha
Outline: as §2

[15] = test system: prickly sida (Sida spinosa L.), SIDSP; assay: Test Example 2 post-emergence (foliage treatment) herbicidal activity, SIDSP; conditions: 63 g a.i./ha
Outline: as §3

[16] = test system: velvetleaf (Abutilon theophrasti), ABUTH; assay: Test Example 2 post-emergence (foliage treatment) herbicidal activity, ABUTH; conditions: 63 g a.i./ha
Outline: as §3

[17] = test system: rice (Oryza sativa L.), ORYSA; assay: Test Example 2 post-emergence (foliage treatment) herbicidal activity, ORYSA; conditions: 63 g a.i./ha
Outline: as §2

[18] = test system: wheat (Triticum aestivum L.), TRZAX; assay: Test Example 2 post-emergence (foliage treatment) herbicidal activity, TRZAX; conditions: 63 g a.i./ha
Outline: as §3

[19] = test system: corn (Zea mays L.), ZEAMX; assay: Test Example 2 post-emergence (foliage treatment) herbicidal activity, ZEAMX; conditions: 63 g a.i./ha
Outline: as §3

[20] = test system: soybean (Glycine max Merr.), GLXMA; assay: Test Example 2 post-emergence (foliage treatment) herbicidal activity, GLXMA; conditions: 63 g a.i./ha
Outline: as §3

[21] = test system: barnyardgrass (Echinochiloa oryzicola: ECHOR); assay: Test Example 3 water application herbicidal activity (paddy), ECHOR; conditions: 63 g a.i./ha, water application under submerged condition at 0.5 leaf stage, visually observed 14th day after application; 0 = untreated control, 100 = complete kill
Outline: (§4)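 Compound, as diluted wettable powder or emulsifiable concentrate, was pipetted into flood water at a set active-ingredient dose. Weeds were treated at 0.5-leaf stage after sowing or tuber planting; 2-leaf rice 4 days post-transplant. Control scored visually, 0 untreated to 100 complete kill, weeds day 14, rice day 21.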

[22] = test system: japanese bulrush (Scirpus juncoides: SCPJO); assay: Test Example 3 water application herbicidal activity (paddy), SCPJO; conditions: 63 g a.i./ha, water application under submerged condition at 0.5 leaf stage, visually observed 14th day after application; 0 = untreated control, 100 = complete kill
Outline: as §4

[23] = test system: japanese ribbon wapato (Sagittaria pygmaea: SA GPY); assay: Test Example 3 water application herbicidal activity (paddy), SAGPY; conditions: 63 g a.i./ha, water application under submerged condition, tubers planted, visually observed 14th day after application; 0 = untreated control, 100 = complete kill
Outline: as §4

[24] = test system: rice (Oryza sativa L.: ORYSA); assay: Test Example 3 water application herbicidal activity (paddy), transplanted rice ORYSA; conditions: 63 g a.i./ha, water application 4th day after transplantation of 2 leaf stage rice, visually observed 21st day after application; 0 = untreated control, 100 = complete kill
Outline: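 Rice at 2-leaf stage is transplanted into flooded puddled soil and treated by water application 4 days later, at a predetermined active-ingredient dose. Crop injury is rated visually as growth control (0–100%) 21 days after treatment.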

## COc1c(Cl)cc(F)c(-c2nn(C)c(OC(F)F)c2Cl)c1NC(=O)c1ccccc1C(F)(F)F [Compound 1-25]
[1]
  Pre-emergence Herbicidal Activity ECHCG (growth controlling degree): 60%
[2]
  Pre-emergence Herbicidal Activity DIGSP (growth controlling degree): 98%
[3]
  Pre-emergence Herbicidal Activity SETVI (growth controlling degree): 95%
[4]
  Pre-emergence Herbicidal Activity AMARE (growth controlling degree): 100%
[5]
  Pre-emergence Herbicidal Activity SIDSP (growth controlling degree): 100%
[6]
  Pre-emergence Herbicidal Activity ABUTH (growth controlling degree): 100%
[7]
  Pre-emergence Herbicidal Activity ORYSA (growth controlling degree): 40%
[8]
  Pre-emergence Herbicidal Activity TRZAX (growth controlling degree): 0%
[9]
  Pre-emergence Herbicidal Activity ZEAMX (growth controlling degree): 0%
[10]
  Pre-emergence Herbicidal Activity GLXMA (growth controlling degree): 0%
[11]
  growth controlling degree, ECHCO: 98%
[12]
  growth controlling degree, DIGSP: 100%
[13]
  growth controlling degree, SETVI: 100%
[14]
  growth controlling degree, AMARE: 100%
[15]
  growth controlling degree, SIDSP: 100%
[16]
  growth controlling degree, ABUTH: 100%
[17]
  growth controlling degree, ORYSA: 90%
[18]
  growth controlling degree, TRZAX: 40%
[19]
  growth controlling degree, ZEAMX: 90%
[20]
  growth controlling degree, GLXMA: 98%
[21]
  growth controlling degrees (%) ECHOR: 98%
[22]
  growth controlling degrees (%) SCPJO: 95%
[23]
  growth controlling degrees (%) SAGPY: 100%
[24]
  growth controlling degrees (%) ORYSA: 60%

## COc1c(Cl)cc(F)c(-c2nn(C)c(OC(F)F)c2Cl)c1NC(=O)c1cccc(Cl)c1 [Compound 1-26]
[1]
  Pre-emergence Herbicidal Activity ECHCG (growth controlling degree): 70%
[2]
  Pre-emergence Herbicidal Activity DIGSP (growth controlling degree): 98%
[3]
  Pre-emergence Herbicidal Activity SETVI (growth controlling degree): 100%
[4]
  Pre-emergence Herbicidal Activity AMARE (growth controlling degree): 100%
[5]
  Pre-emergence Herbicidal Activity SIDSP (growth controlling degree): 70%
[6]
  Pre-emergence Herbicidal Activity ABUTH (growth controlling degree): 100%
[7]
  Pre-emergence Herbicidal Activity ORYSA (growth controlling degree): 30%
[8]
  Pre-emergence Herbicidal Activity TRZAX (growth controlling degree): 10%
[9]
  Pre-emergence Herbicidal Activity ZEAMX (growth controlling degree): 10%
[10]
  Pre-emergence Herbicidal Activity GLXMA (growth controlling degree): 10%
[11]
  growth controlling degree, ECHCO: 95%
[12]
  growth controlling degree, DIGSP: 60%
[13]
  growth controlling degree, SETVI: 100%
[14]
  growth controlling degree, AMARE: 100%
[15]
  growth controlling degree, SIDSP: 100%
[16]
  growth controlling degree, ABUTH: 100%
[17]
  growth controlling degree, ORYSA: 80%
[18]
  growth controlling degree, TRZAX: 30%
[19]
  growth controlling degree, ZEAMX: 40%
[20]
  growth controlling degree, GLXMA: 70%
[21]
  growth controlling degrees (%) ECHOR: 100%
[22]
  growth controlling degrees (%) SCPJO: 70%
[23]
  growth controlling degrees (%) SAGPY: 100%
[24]
  growth controlling degrees (%) ORYSA: 60%

Source: patent US20050245399A1, “Pyrazole derivatives as herbicidal compositions containing them” (ISHIHARA SANGYO KAISHA, LTD., priority 2004, published 2005)
